Assay results: PubChem BioAssay (NCI)
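Assay format: 96-well plates, 48-hour exposure. The concentration for full growth arrest is given as TGI.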

What was measured:
Experiment in all cases: NCI tumour cell line growth inhibition, 48 h
M19-MEL melanoma = tested on: M19-MEL melanoma
A549 NSCLC = tested on: A549 NSCLC
OVCAR-5 ovarian = tested on: OVCAR-5 ovarian
SNB-75 CNS = tested on: SNB-75 CNS
COLO 205 colon = tested on: COLO 205 colon
SW-620 colon = tested on: SW-620 colon
SK-MEL-28 melanoma = tested on: SK-MEL-28 melanoma
P388 leukemia = tested on: P388 leukemia
HCT-15 colon = tested on: HCT-15 colon
UO-31 renal = tested on: UO-31 renal
RPMI-8226 leukemia = tested on: RPMI-8226 leukemia
MOLT-4 leukemia = tested on: MOLT-4 leukemia
KM12 colon = tested on: KM12 colon
SN12C renal = tested on: SN12C renal
SF-539 CNS = tested on: SF-539 CNS
UACC-257 melanoma = tested on: UACC-257 melanoma
EKVX NSCLC = tested on: EKVX NSCLC
NCI-H23 lung = tested on: NCI-H23 lung
SK-OV-3 ovarian = tested on: SK-OV-3 ovarian
OVCAR-4 ovarian = tested on: OVCAR-4 ovarian
HOP-62 NSCLC = tested on: HOP-62 NSCLC
SK-MEL-2 melanoma = tested on: SK-MEL-2 melanoma
OVCAR-3 ovarian = tested on: OVCAR-3 ovarian
SK-MEL-5 melanoma = tested on: SK-MEL-5 melanoma
DMS 273 small cell lung = tested on: DMS 273 small cell lung
NCI-H460 lung = tested on: NCI-H460 lung
HL-60(TB) leukemia = tested on: HL-60(TB) leukemia
IGROV1 ovarian = tested on: IGROV1 ovarian
K-562 leukemia = tested on: K-562 leukemia
XF 498 CNS = tested on: XF 498 CNS
LOX IMVI melanoma = tested on: LOX IMVI melanoma
HCC-2998 colon = tested on: HCC-2998 colon
NCI-H226 lung = tested on: NCI-H226 lung
KM20L2 colon = tested on: KM20L2 colon
SF-268 CNS = tested on: SF-268 CNS
HCT-116 colon = tested on: HCT-116 colon
OVCAR-8 ovarian = tested on: OVCAR-8 ovarian
DLD-1 colon = tested on: DLD-1 colon
NCI-H522 lung = tested on: NCI-H522 lung
SNB-78 CNS = tested on: SNB-78 CNS
SF-295 CNS = tested on: SF-295 CNS
UACC-62 melanoma = tested on: UACC-62 melanoma
SN12K1 renal = tested on: SN12K1 renal
MALME-3M melanoma = tested on: MALME-3M melanoma
A498 renal = tested on: A498 renal
CCRF-CEM leukemia = tested on: CCRF-CEM leukemia
HT29 colon = tested on: HT29 colon
HOP-18 NSCLC = tested on: HOP-18 NSCLC
U251 CNS = tested on: U251 CNS
RXF 393 renal = tested on: RXF 393 renal
SNB-19 CNS = tested on: SNB-19 CNS
MCF7 breast = tested on: MCF7 breast
HOP-92 NSCLC = tested on: HOP-92 NSCLC
NCI/ADR-RES ovarian = tested on: NCI/ADR-RES ovarian
DMS 114 small cell lung = tested on: DMS 114 small cell lung

## CCCCCOc1ccc(C=Nc2ccc(-c3ccc(N=Cc4ccc(OCCCCC)cc4)c(OC)c3)cc2OC)cc1
M19-MEL melanoma
  TGI: > 100 µM
A549 NSCLC
  TGI: > 100 µM
OVCAR-5 ovarian
  TGI: > 100 µM
SNB-75 CNS
  TGI: > 100 µM
COLO 205 colon
  TGI: > 100 µM
SW-620 colon
  TGI: > 100 µM
SK-MEL-28 melanoma
  TGI: > 100 µM
P388 leukemia
  TGI: > 100 µM
HCT-15 colon
  TGI: > 100 µM
UO-31 renal
  TGI: > 100 µM
RPMI-8226 leukemia
  TGI: > 100 µM
MOLT-4 leukemia
  TGI: > 100 µM
KM12 colon
  TGI: > 100 µM
SN12C renal
  TGI: > 100 µM
SF-539 CNS
  TGI: > 100 µM
UACC-257 melanoma
  TGI: > 100 µM
EKVX NSCLC
  TGI: > 100 µM
NCI-H23 lung
  TGI: > 100 µM
SK-OV-3 ovarian
  TGI: > 100 µM
OVCAR-4 ovarian
  TGI: > 31.6 µM
HOP-62 NSCLC
  TGI: > 100 µM
SK-MEL-2 melanoma
  TGI: > 100 µM
OVCAR-3 ovarian
  TGI: > 100 µM
SK-MEL-5 melanoma
  TGI: > 100 µM
DMS 273 small cell lung
  TGI: > 100 µM
NCI-H460 lung
  TGI: > 100 µM
HL-60(TB) leukemia
  TGI: > 100 µM
IGROV1 ovarian
  TGI: > 100 µM
K-562 leukemia
  TGI: > 31.6 µM
XF 498 CNS
  TGI: > 100 µM
LOX IMVI melanoma
  TGI: > 100 µM
HCC-2998 colon
  TGI: > 100 µM
NCI-H226 lung
  TGI: > 100 µM
KM20L2 colon
  TGI: > 100 µM
SF-268 CNS
  TGI: > 100 µM
HCT-116 colon
  TGI: > 100 µM
OVCAR-8 ovarian
  TGI: > 100 µM
DLD-1 colon
  TGI: > 100 µM
NCI-H522 lung
  TGI: > 100 µM
SNB-78 CNS
  TGI: > 100 µM
SF-295 CNS
  TGI: > 100 µM
UACC-62 melanoma
  TGI: > 100 µM
SN12K1 renal
  TGI: > 100 µM
MALME-3M melanoma
  TGI: > 100 µM
A498 renal
  TGI: > 100 µM
CCRF-CEM leukemia
  TGI: > 100 µM
HT29 colon
  TGI: > 100 µM
HOP-18 NSCLC
  TGI: > 100 µM
U251 CNS
  TGI: > 100 µM
RXF 393 renal
  TGI: > 100 µM
SNB-19 CNS
  TGI: > 100 µM
MCF7 breast
  TGI: > 100 µM
HOP-92 NSCLC
  TGI: > 100 µM
NCI/ADR-RES ovarian
  TGI: > 100 µM
DMS 114 small cell lung
  TGI: > 100 µM
